Measured values: publication PMC7366380, “Discovery of a Potent and Selective Covalent Inhibitor and Activity-Based Probe for the Deubiquitylating Enzyme UCHL1, with Antifibrotic Activity” (Journal of the American Chemical Society, 2020)
Values joined by “and” are separate entries in the source; they are usually repeats but may differ in a detail not shown here. Identical values can stand only once.

Key:
Assay in all cases: Quantitative chemical proteomic profiling of ABP 2 in HEK293 cells: other DUBs and proteins across the proteome
[1] = molecular target: DUBs and other proteins in HEK293 cells (Homo sapiens, UniProt P51784); settings: USP11, listed as ABP 2
[2] = molecular target: T1, DUBs and other proteins in HEK293 cells (Homo sapiens, UniProt P51665); settings: PSMD7, listed as ABP 2
T1 sequence (P51665 1-324): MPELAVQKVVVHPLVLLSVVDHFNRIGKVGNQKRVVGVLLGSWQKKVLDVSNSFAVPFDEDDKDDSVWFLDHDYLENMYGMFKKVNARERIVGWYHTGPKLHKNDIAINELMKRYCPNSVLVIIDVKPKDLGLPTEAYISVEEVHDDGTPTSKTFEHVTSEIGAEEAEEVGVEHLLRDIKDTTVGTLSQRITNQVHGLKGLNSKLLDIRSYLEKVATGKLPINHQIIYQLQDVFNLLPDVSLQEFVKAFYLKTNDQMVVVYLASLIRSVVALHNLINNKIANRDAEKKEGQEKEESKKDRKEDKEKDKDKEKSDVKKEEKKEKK

[3] = molecular target: DUBs and other proteins in HEK293 cells (Homo sapiens, UniProt P54578); settings: USP14, listed as ABP 2
[4] = molecular target: T2, DUBs and other proteins in HEK293 cells (Homo sapiens, UniProt P45974); settings: USP5, listed as ABP 2
T2 sequence (P45974 1-858): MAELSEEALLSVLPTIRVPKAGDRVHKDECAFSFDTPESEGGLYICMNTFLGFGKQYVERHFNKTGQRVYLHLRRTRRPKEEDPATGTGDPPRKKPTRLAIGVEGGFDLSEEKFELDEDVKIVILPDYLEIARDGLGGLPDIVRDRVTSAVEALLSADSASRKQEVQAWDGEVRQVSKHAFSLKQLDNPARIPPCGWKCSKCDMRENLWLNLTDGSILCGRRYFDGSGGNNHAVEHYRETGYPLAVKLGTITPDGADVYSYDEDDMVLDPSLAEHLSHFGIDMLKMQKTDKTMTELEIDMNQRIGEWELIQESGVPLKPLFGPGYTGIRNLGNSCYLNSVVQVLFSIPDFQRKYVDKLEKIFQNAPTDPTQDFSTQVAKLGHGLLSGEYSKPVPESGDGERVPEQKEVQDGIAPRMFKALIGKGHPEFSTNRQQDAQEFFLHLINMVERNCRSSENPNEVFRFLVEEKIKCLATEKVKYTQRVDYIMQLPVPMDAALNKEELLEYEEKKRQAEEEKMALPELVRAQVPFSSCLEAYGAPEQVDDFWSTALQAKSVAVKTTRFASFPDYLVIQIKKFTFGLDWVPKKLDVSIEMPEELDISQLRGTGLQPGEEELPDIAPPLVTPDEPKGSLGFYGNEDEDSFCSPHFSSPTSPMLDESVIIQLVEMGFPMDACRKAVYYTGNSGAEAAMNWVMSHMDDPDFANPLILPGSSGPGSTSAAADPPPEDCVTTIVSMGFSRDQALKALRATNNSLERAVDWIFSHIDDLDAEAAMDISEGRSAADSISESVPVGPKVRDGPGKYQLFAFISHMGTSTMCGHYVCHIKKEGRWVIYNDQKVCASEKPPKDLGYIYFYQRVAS

[5] = molecular target: DUBs and other proteins in HEK293 cells (Homo sapiens, UniProt Q92905); settings: COPS5, listed as ABP 2
[6] = molecular target: DUBs and other proteins in HEK293 cells (Homo sapiens, UniProt Q7L5N1); settings: COPS6, listed as ABP 2
[7] = molecular target: DUBs and other proteins in HEK293 cells (Homo sapiens, UniProt Q6P2Q9); settings: PRPF8, listed as ABP 2
[8] = molecular target: DUBs and other proteins in HEK293 cells (Homo sapiens, UniProt Q96FW1); settings: OTUB1, listed as ABP 2
[9] = 200 nM, 180 min, replicates A,C

DUBs and other proteins in HEK293 cells (Homo sapiens, UniProt Q92905), sequence (Q92905 whole entry): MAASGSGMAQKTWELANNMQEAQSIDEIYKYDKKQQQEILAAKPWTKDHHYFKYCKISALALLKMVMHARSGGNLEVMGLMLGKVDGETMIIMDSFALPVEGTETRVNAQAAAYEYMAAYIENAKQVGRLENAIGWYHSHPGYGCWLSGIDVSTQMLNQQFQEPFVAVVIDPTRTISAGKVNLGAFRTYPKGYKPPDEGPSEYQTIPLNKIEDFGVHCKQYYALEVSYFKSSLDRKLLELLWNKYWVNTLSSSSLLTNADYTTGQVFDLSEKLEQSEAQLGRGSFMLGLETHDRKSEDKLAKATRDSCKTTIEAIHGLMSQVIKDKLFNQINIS
DUBs and other proteins in HEK293 cells (Homo sapiens, UniProt P51784), sequence (P51784 whole entry): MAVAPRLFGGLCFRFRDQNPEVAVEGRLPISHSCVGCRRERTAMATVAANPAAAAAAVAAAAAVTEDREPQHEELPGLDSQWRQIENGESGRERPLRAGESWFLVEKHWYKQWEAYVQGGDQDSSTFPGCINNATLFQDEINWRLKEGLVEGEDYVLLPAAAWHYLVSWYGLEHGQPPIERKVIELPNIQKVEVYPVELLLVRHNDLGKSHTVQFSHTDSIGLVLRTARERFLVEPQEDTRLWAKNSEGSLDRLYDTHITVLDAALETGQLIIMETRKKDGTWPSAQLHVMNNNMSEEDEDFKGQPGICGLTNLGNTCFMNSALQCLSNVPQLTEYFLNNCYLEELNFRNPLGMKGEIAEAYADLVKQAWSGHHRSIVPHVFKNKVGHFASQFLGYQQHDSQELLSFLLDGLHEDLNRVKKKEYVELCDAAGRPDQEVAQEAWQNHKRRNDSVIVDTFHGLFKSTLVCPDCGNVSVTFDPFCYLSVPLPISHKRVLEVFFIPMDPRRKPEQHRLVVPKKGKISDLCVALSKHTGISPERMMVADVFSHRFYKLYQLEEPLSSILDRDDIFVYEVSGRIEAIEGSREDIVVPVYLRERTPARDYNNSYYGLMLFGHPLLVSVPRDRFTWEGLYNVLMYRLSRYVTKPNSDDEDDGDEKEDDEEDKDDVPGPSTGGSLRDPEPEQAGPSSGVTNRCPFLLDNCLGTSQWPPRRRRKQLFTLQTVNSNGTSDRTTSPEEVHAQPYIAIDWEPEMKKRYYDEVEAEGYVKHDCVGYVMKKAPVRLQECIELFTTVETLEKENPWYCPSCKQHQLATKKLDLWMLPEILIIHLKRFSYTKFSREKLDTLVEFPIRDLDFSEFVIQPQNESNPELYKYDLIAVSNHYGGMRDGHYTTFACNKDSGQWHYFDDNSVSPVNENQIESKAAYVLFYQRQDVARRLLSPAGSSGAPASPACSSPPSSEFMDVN
DUBs and other proteins in HEK293 cells (Homo sapiens, UniProt Q7L5N1), sequence (Q7L5N1 whole entry): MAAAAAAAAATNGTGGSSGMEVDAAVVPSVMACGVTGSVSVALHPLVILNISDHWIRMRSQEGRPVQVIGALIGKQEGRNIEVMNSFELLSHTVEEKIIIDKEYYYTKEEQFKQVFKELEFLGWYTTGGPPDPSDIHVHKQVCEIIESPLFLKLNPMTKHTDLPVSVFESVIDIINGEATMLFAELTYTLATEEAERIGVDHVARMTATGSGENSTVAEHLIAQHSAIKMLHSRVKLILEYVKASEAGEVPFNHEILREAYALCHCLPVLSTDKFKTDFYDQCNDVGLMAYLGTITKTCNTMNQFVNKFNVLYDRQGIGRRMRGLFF
DUBs and other proteins in HEK293 cells (Homo sapiens, UniProt Q96FW1), sequence (Q96FW1 whole entry): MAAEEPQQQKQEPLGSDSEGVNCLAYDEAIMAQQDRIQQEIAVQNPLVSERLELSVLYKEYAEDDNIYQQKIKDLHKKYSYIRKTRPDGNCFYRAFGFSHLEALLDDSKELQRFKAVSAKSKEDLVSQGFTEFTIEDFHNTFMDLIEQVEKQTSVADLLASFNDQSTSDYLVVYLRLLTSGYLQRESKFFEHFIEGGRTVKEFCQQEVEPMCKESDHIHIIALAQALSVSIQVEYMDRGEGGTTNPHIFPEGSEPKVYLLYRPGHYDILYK
DUBs and other proteins in HEK293 cells (Homo sapiens, UniProt P54578), sequence (P54578 whole entry): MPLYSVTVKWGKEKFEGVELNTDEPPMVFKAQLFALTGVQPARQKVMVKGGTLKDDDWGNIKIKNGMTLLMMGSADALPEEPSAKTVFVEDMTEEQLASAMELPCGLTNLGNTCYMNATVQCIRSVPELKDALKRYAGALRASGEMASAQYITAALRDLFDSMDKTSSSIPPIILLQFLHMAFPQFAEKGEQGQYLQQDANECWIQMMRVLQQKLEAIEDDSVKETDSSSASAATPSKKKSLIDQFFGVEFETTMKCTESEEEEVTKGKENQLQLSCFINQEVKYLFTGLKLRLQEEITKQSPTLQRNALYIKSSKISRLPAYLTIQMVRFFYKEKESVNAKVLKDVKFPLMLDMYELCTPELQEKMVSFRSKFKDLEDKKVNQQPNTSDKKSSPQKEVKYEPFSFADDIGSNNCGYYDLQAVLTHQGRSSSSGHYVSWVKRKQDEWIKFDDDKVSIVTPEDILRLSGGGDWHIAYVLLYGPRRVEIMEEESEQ

C#Cc1cnc2[nH]cc(-c3cccc4c3CCN4C(=O)[C@@H]3CCCN3C#N)c2c1 [Compound 2]
Log2 reporter intensity values (Log2FC, DMSO substract) ([1]; 2 nM, 60 min, replicates A-C): 0.1233 and -0.3054 and -0.2167 | Log2 reporter intensity values (Log2FC, DMSO substract) ([1]; 20 nM, 10 min, replicates B,C): -0.09443 and -0.2626 | Log2 reporter intensity values (Log2FC, DMSO substract) ([1]; 20 nM, 60 min, replicates A-C): -0.4096 and 0.07333 and 0.009688 | Log2 reporter intensity values (Log2FC, DMSO substract) ([1]; 20 nM, 180 min, replicates A-C): -0.127 and -0.3984 and -0.1331 | Log2 reporter intensity values (Log2FC, DMSO substract) ([1]; 200 nM, 10 min, replicates B,C): 0.008113 and -0.08322 | Log2 reporter intensity values (Log2FC, DMSO substract) ([1]; 200 nM, 60 min, replicates A-C): 0.1655 and -0.03212 and -0.2868 | Log2 reporter intensity values (Log2FC, DMSO substract) [1, 9]: 0.2311 and 0.03651 | Log2 reporter intensity values (Log2FC, DMSO substract) ([2]; 2 nM, 60 min, replicates A-C): -0.04989 and -0.02897 and -0.2015 | Log2 reporter intensity values (Log2FC, DMSO substract) ([2]; 20 nM, 10 min, replicates B,C): -0.09409 and -0.09867 | Log2 reporter intensity values (Log2FC, DMSO substract) ([2]; 20 nM, 60 min, replicates A-C): 0.07866 and 0.1721 and 0.02873 | Log2 reporter intensity values (Log2FC, DMSO substract) ([2]; 20 nM, 180 min, replicates A-C): 0.04655 and 0.01609 and -0.03959 | Log2 reporter intensity values (Log2FC, DMSO substract) ([2]; 200 nM, 10 min, replicates B,C): 0.1092 and 0.06216 | Log2 reporter intensity values (Log2FC, DMSO substract) ([2]; 200 nM, 60 min, replicates A-C): -0.1489 and -0.1748 | Log2 reporter intensity values (Log2FC, DMSO substract) [2, 9]: -0.06266 and -0.01801 | Log2 reporter intensity values (Log2FC, DMSO substract) ([3]; 2 nM, 60 min, replicates A-C): 0.01071 and 0.05631 and -0.04364 | Log2 reporter intensity values (Log2FC, DMSO substract) ([3]; 20 nM, 10 min, replicates B,C): 0.009394 and 0.07693 | Log2 reporter intensity values (Log2FC, DMSO substract) ([3]; 20 nM, 60 min, replicates A-C): 0.05332 and 0.1025 | Log2 reporter intensity values (Log2FC, DMSO substract) ([3]; 20 nM, 180 min, replicates A-C): 0.1385 and 0.1351 and 0.05551 | Log2 reporter intensity values (Log2FC, DMSO substract) ([3]; 200 nM, 10 min, replicates B,C): 0.1048 | Log2 reporter intensity values (Log2FC, DMSO substract) ([3]; 200 nM, 60 min, replicates A-C): 0.05455 and 0.04834 and 0.1109 | Log2 reporter intensity values (Log2FC, DMSO substract) [3, 9]: -0.08272 and -0.01544 | Log2 reporter intensity values (Log2FC, DMSO substract) ([4]; 2 nM, 60 min, replicates A-C): -0.1407 and 0.0289 and 0.1099 | Log2 reporter intensity values (Log2FC, DMSO substract) ([4]; 20 nM, 10 min, replicates B,C): 0.1281 | Log2 reporter intensity values (Log2FC, DMSO substract) ([4]; 20 nM, 60 min, replicates A-C): 0.06053 and 0.195 and 0.2148 | Log2 reporter intensity values (Log2FC, DMSO substract) ([4]; 20 nM, 180 min, replicates A-C): 0.2725 and 0.06742 and 0.2092 | Log2 reporter intensity values (Log2FC, DMSO substract) ([4]; 200 nM, 10 min, replicates B,C): 0.2092 and 0.2483 | Log2 reporter intensity values (Log2FC, DMSO substract) ([4]; 200 nM, 60 min, replicates A-C): 0.08791 and 0.2394 | Log2 reporter intensity values (Log2FC, DMSO substract) [4, 9]: 0.2625 and 0.2347 | Log2 reporter intensity values (Log2FC, DMSO substract) ([5]; 2 nM, 60 min, replicates A-C): -0.07206 and -0.06602 and 0.07642 | Log2 reporter intensity values (Log2FC, DMSO substract) ([5]; 20 nM, 10 min, replicates B,C): -0.04991 and -0.07182 | Log2 reporter intensity values (Log2FC, DMSO substract) ([5]; 20 nM, 60 min, replicates A-C): -0.1096 and -0.2324 and -0.02748 | Log2 reporter intensity values (Log2FC, DMSO substract) ([5]; 20 nM, 180 min, replicates A-C): -0.1203 and -0.07618 and -0.1432 | Log2 reporter intensity values (Log2FC, DMSO substract) ([5]; 200 nM, 10 min, replicates B,C): -0.09582 and 0.125 | Log2 reporter intensity values (Log2FC, DMSO substract) ([5]; 200 nM, 60 min, replicates A-C): 0.01523 and 0.2396 and 0.003556 | Log2 reporter intensity values (Log2FC, DMSO substract) [5, 9]: 0.05752 and -0.04833 | Log2 reporter intensity values (Log2FC, DMSO substract) ([6]; 2 nM, 60 min, replicates A-C): -0.04023 and 0.308 | Log2 reporter intensity values (Log2FC, DMSO substract) ([6]; 20 nM, 10 min, replicates B,C): -0.278 and 0.05496 | Log2 reporter intensity values (Log2FC, DMSO substract) ([6]; 20 nM, 60 min, replicates A-C): -0.132 and -0.1593 and 0.09464 | Log2 reporter intensity values (Log2FC, DMSO substract) ([6]; 20 nM, 180 min, replicates A-C): -0.02381 and 0.4095 and -0.1139 | Log2 reporter intensity values (Log2FC, DMSO substract) ([6]; 200 nM, 10 min, replicates B,C): 0.1379 and -0.08033 | Log2 reporter intensity values (Log2FC, DMSO substract) ([6]; 200 nM, 60 min, replicates A-C): 0.1575 and 0.03437 and 0.12 | Log2 reporter intensity values (Log2FC, DMSO substract) [6, 9]: 0.2559 and 0.1548 | Log2 reporter intensity values (Log2FC, DMSO substract) ([7]; 2 nM, 60 min, replicates A-C): -0.06588 and -0.04701 and -0.09225 | Log2 reporter intensity values (Log2FC, DMSO substract) ([7]; 20 nM, 10 min, replicates B,C): -0.04258 and -0.0756 | Log2 reporter intensity values (Log2FC, DMSO substract) ([7]; 20 nM, 60 min, replicates A-C): -0.1603 and -0.1771 and -0.09715 | Log2 reporter intensity values (Log2FC, DMSO substract) ([7]; 20 nM, 180 min, replicates A-C): -0.4052 and -0.02523 and -0.1285 | Log2 reporter intensity values (Log2FC, DMSO substract) ([7]; 200 nM, 10 min, replicates B,C): -0.213 and -0.1784 | Log2 reporter intensity values (Log2FC, DMSO substract) ([7]; 200 nM, 60 min, replicates A-C): 0.0802 and -0.1457 and -0.1731 | Log2 reporter intensity values (Log2FC, DMSO substract) [7, 9]: -0.0003694 and 0.003479 | Log2 reporter intensity values (Log2FC, DMSO substract) ([8]; 2 nM, 60 min, replicates A-C): 0.1769 and 0.1167 and 0.05908 | Log2 reporter intensity values (Log2FC, DMSO substract) ([8]; 20 nM, 10 min, replicates B,C): 0.07104 | Log2 reporter intensity values (Log2FC, DMSO substract) ([8]; 20 nM, 60 min, replicates A-C): 0.004019 | Log2 reporter intensity values (Log2FC, DMSO substract) ([8]; 20 nM, 180 min, replicates A-C): -0.1034 and 0.07381 and 0.1015 | Log2 reporter intensity values (Log2FC, DMSO substract) ([8]; 200 nM, 10 min, replicates B,C): 0.1233 and 0.1033 | Log2 reporter intensity values (Log2FC, DMSO substract) ([8]; 200 nM, 60 min, replicates A-C): 0.176 and 0.4057 and 0.2275 | Log2 reporter intensity values (Log2FC, DMSO substract) [8, 9]: 0.3761 and 0.4198
